Tests used:
[1] = system: human primary colon cancer cells (CC14); assay: BrdU incorporation proliferation assay in CC14 cells; assay type: cell-based; details: 48 h
Method: (§1) Human colon adenocarcinoma cell line (LS174T), human primary colon cancer cells (CC14) and primary metastatic cells (mCC11) were treated with Avermectin B1 (MicroSource Discovery systems, CT, USA), 5 μM. Control cells were treated with equivalent concentration of DMSO. 48 h after treatment, the percentage of BrdU incorporation was calculated for cells treated with Avermectin B1 as compared to control cells as follows: the number of BrdU positive cells over total number of cells expressed as percentage compared to control cells treated with DMSO only. Cells were cultivated in standard conditions (37° C., 5% CO2) in DMEM containing 10% Fetal Calf Serum.
(§2) The same assay as described in Example 1 was carried out on human primary colon cancer cells (CC14 and CC36) (TNM IV and III, respectively) and primary metastatic cells (mCC11) from the liver of the patient where cell samples were treated with Abamectin (Sigma #31732) at three different concentrations: 0.1, 1 and 5 μM. Control cells were treated with equivalent concentrations of DMSO. 48 h after treatment the level of BrdU incorporation was calculated for cells treated with each macrocyclic lactone as compared to control cells as described above.
(§3) The same assay as described in Example 1 was carried out on human primary colon cancer cells (CC14 and CC36) (TNM IV and III, respectively) and primary metastatic cells (mCC11) from the liver of the patient, on the human adenocarcinoma cell lines DLD1, LS174T, and SW180 and on human skin melanoma cell lines MeWo and SKMel2 where cell samples were treated with Ivermectin (Fabron Iberica S.A.U) or Stromectol™ (Merck & Co. Inc.) which is an oral pharmaceutical formulation of semisynthetic Ivermectin (mixture containing at least 90% 5-O-demethyl-22,23-dihydroavermectin A1a and less than 10% 5-O-demethyl-25-de(1-methylpropyl)-22,23-dihydro-25-(1-methylethyl)avermectin A1a, generally referred to as 22,23-dihydroavermectin B1a and B1b, or H2B1a and H2B1b) at different concentrations: 0.5, 1, 2.5, 5 and 10 μM (Ivermectin diluted in DMSO, Stromectol in Ethanol). […]

[2] = system: human primary colon cancer cells (CC36); assay: BrdU incorporation proliferation assay in CC36 cells; assay type: cell-based; details: 48 h
Method: as §1
The same assay as described in Example 1 was carried out on human primary colon cancer cells (CC14 and CC36) (TNM IV and III, respectively) and primary metastatic cells (mCC11) from the liver of the patient where cell samples were treated with Abamectin (Sigma #31732) at three different concentrations: 0.1, 1 and 5 μM. Control cells were treated with equivalent concentrations of DMSO. 48 h after treatment the level of BrdU incorporation was calculated for cells treated with each macrocyclic lactone as compared to control cells as described above. […]

[3] = system: Human colon adenocarcinoma cell line (LS174T); assay: BrdU incorporation proliferation assay in LS174T cells; assay type: cell-based; details: 48 h
Method: as §1
The same assay as described in Example 1 was carried out on human colon adenocarcinoma cell line LS174T where cell samples were either treated with Abamectin (Sigma #31732) or Doramectin (Sigma #33993) at three different concentrations: 0.1, 1 and 5 μM. Control cells were treated with equivalent concentration of DMSO. 48 h after treatment, the percentage of BrdU incorporation was calculated for cells treated with each macrocyclic lactone as compared to control cells as described above.
The same assay as described in Example 1 was carried out on human primary colon cancer cells (CC14 and CC36) (TNM IV and III, respectively) and primary metastatic cells (mCC11) from the liver of the patient, on the human adenocarcinoma cell lines DLD1, LS174T, and SW180 and on human skin melanoma cell lines MeWo and SKMel2 where cell samples were treated with Ivermectin (Fabron Iberica S.A.U) or Stromectol™ (Merck & Co. Inc.) which is an oral pharmaceutical formulation of semisynthetic Ivermectin (mixture containing at least 90% 5-O-demethyl-22,23-dihydroavermectin A1a and less than 10% 5-O-demethyl-25-de(1-methylpropyl)-22,23-dihydro-25-(1-methylethyl)avermectin A1a, generally referred to as 22,23-dihydroavermectin B1a and B1b, or H2B1a and H2B1b) at different concentrations: 0.5, 1, 2.5, 5 and 10 μM (Ivermectin diluted in DMSO, Stromectol in Ethanol). Control cells were treated with equivalent concentrations of DMSO. 48 h after treatment the level of BrdU incorporation was calculated for cells treated with each macrocyclic lactone as compared to control cells as described above. IC50 values are calculated by interpolation from a dose response curve fitted using PRISM (Graphpad Software).

[4] = system: primary metastatic cells (mCC11); assay: BrdU incorporation proliferation assay in mCC11 cells; assay type: cell-based, human; details: 48 h
Method: as §1, §2, §3

Wnt pathway = assay: Key Wnt target gene expression by quantitative real time PCR in LS174 cells; assay type: cell-based, human; details: 12 h after 5 μM Avermectin B1 (vs DMSO) or dnTCF4 expression (vs control plasmid)
Method: Key Wnt target gene expression was determined by quantitative real time PCR in LS174 colon adenocarcinoma cell line expressing a dominant negative TCF4 cDNA (dnTCF4) or 12 h after treatment with 5 μM Avermectin B1 (MicroSource Discovery systems, CT, USA). Control cell samples were treated with equivalent concentrations of DMSO. Cells were cultivated in standard conditions as described in Example 1.
Expression levels of individual genes are shown as a percentage compared to their expression levels in control cells treated with DMSO only in the case of Avermectin B1, or transfected with control plasmid in the case of dnTCF4, and are shown in Table 1 below: […]

[5] = system: human adenocarcinoma cell line SW180; assay: BrdU incorporation proliferation assay in SW180 cells; assay type: cell-based; details: SW180, 0.5, 1, 2.5, 5 and 10 μM, 48 h
Method: as §1, with “Serum. […]” for “Serum.”

[6] = system: human DLD1 CC cell xenografts; assay: Mouse xenografts of human colon cancer (DLD1) cells; assay type: in vivo, nude NMRI mice; details: DLD1 xenografts in nude mice, 10 mg/kg; comparable to dnTCF4 (transgenic Wnt inhibition)
Method: Six- to eight-week-old female nude NMRI (Naval Medical Research Institute) mice each receive two injections of 10^5-10^6 human DLD1 CC cells on their backs as independent subcutaneous xenografts. As soon as the tumor is palpable (1-2 mm) (usually 7-10 days following xenograft), a range of concentrations of Ivermectin (Fabron Iberica S.A.U) or Abamectin (Sigma #31732) (0 (excipient only), 10, 50 and 100 mg/kg/day) is given by oral gavage combined with corn oil or is administered intra-peritoneally (IP) combined with 2-hydroxypropyl-β-cyclodextrin (Sigma, 45% solution) in a second set of experiments. Tumor size is periodically measured with a caliper. Mice are sacrificed before the tumors approach the legal size limit and the tumors are removed and analysed for proliferation (BrdU assay), apoptosis (Caspase3 assay, Varnat et al., 2009, EMBO Mol. Med., 1, 338-351) and invasion (Varnat et al., 2010, above). Control mice are treated with carrier-only control cells, or cells expressing a dominant-negative TCF4 construct (dnTCF4), which acts to actively repress Wnt-TCF signalling.

[7] = system: human adenocarcinoma cell line DLD1; assay: BrdU incorporation proliferation assay in DLD1 cells; assay type: cell-based; details: DLD1, 0.5, 1, 2.5, 5 and 10 μM, 48 h
Method: as §1, with “Serum. […]” for “Serum.”

[8] = system: human skin melanoma cell line MeWo; assay: BrdU incorporation proliferation assay in MeWo cells; assay type: cell-based; details: MeWo, 0.5, 1, 2.5, 5 and 10 μM, 48 h
Method: as §1, with “Serum. […]” for “Serum.”

[9] = system: human glioblastoma cancer cell lines and cells from primary human glioblastoma tumors; assay: BrdU incorporation proliferation assay in glioblastoma cells; assay type: cell-based; details: 48 h
[10] = system: human skin melanoma cell line SKMel2; assay: BrdU incorporation proliferation assay in SKMel2 cells; assay type: cell-based; details: SKMel2, 0.5, 1, 2.5, 5 and 10 μM, 48 h
Method: as §1, with “Serum. […]” for “Serum.”

Molecule: Abamectin
- proliferation (BrdU incorporation), dose-effect ([1]; CC14, 0.1, 1 and 5 μM): decreases proliferation in a dose-dependent manner
- proliferation (BrdU incorporation), dose-effect ([2]; CC36, 0.1, 1 and 5 μM): decreases proliferation in a dose-dependent manner
- proliferation (BrdU incorporation), dose-effect ([3]; LS174T, 0.1, 1 and 5 μM): decreases proliferation in a dose-dependent manner
- proliferation (BrdU incorporation), dose-effect ([4]; mCC11, 0.1, 1 and 5 μM): decreases proliferation in a dose-dependent manner

Molecule: Avermectin B1
- AXIN2 expression level as percentage compared to control cells (Wnt pathway): 62%
- C-MYC expression level as percentage compared to control cells (Wnt pathway): 35%
- EPHB2 expression level as percentage compared to control cells (Wnt pathway): 78%
- EPHB3 expression level as percentage compared to control cells (Wnt pathway): 55%
- EPNB1 expression level as percentage compared to control cells (Wnt pathway): 277%
- LGR5 expression level as percentage compared to control cells (Wnt pathway): 3%
- P21 expression level as percentage compared to control cells (Wnt pathway): 635%
- proliferation (percentage of BrdU incorporation compared to DMSO control) ([1]; CC14, 5 μM): decreases to a minimum of half the proliferation
- proliferation (percentage of BrdU incorporation compared to DMSO control) ([3]; LS174T, 5 μM): decreases to a minimum of half the proliferation
- proliferation (percentage of BrdU incorporation compared to DMSO control) ([4]; mCC11, 5 μM): decreases to a minimum of half the proliferation

Molecule: Ivermectin
- proliferation (BrdU incorporation), dose-effect [5]: decreases proliferation in a dose-dependent manner
- colon cancer xenograft growth [6]: able to inhibit colon cancer xenograft growth
- proliferation (BrdU incorporation), dose-effect ([1]; CC14, 0.5, 1, 2.5, 5 and 10 μM): decreases proliferation in a dose-dependent manner
- proliferation (BrdU incorporation), dose-effect [7]: decreases proliferation in a dose-dependent manner
- proliferation (BrdU incorporation), dose-effect ([2]; CC36, 0.5, 1, 2.5, 5 and 10 μM): decreases proliferation in a dose-dependent manner
- proliferation (BrdU incorporation), dose-effect ([3]; LS174T, 0.5, 1, 2.5, 5 and 10 μM): decreases proliferation in a dose-dependent manner
- proliferation (BrdU incorporation), dose-effect [8]: decreases proliferation in a dose-dependent manner
- proliferation (BrdU incorporation), dose-effect [9]: decreases proliferation in a dose-dependent manner
- proliferation (BrdU incorporation), dose-effect [10]: decreases proliferation in a dose-dependent manner
- proliferation (BrdU incorporation), dose-effect ([4]; mCC11, 0.5, 1, 2.5, 5 and 10 μM): decreases proliferation in a dose-dependent manner

Molecule: CO[C@H]1C[C@H](O[C@H]2[C@H](C)O[C@@H](O[C@@H]3/C(C)=C/C[C@@H]4C[C@@H](C[C@]5(C=C[C@H](C)[C@@H](C6CCCCC6)O5)O4)OC(=O)[C@@H]4C=C(C)[C@@H](O)[C@H]5OC/C(=C\C=C\[C@@H]3C)[C@]54O)C[C@@H]2OC)O[C@@H](C)[C@@H]1O [Doramectin, 25-cyclohexyl-5-O-demethyl-25-de(1-methylpropyl)avermectin A1a]
- proliferation (BrdU incorporation), dose-effect ([3]; LS174T, 0.1, 1 and 5 μM): decreases proliferation in a dose-dependent manner

From patent US9351988B2, “Macrocyclic lactones and use thereof” (UNIVERSITE DE GENEVE, priority 2011, dated 2016)
